# Reference: patent EP0574185B1, “PGE1 analogs” (NEWPHARMA INTERNATIONAL CORPORATION, priority 1992, dated 1993)
# What was measured:
# [1] = test system: isolated uterus of estrogenized rats; assay: Effect on isolated uterus of estrogenized rats (non-cumulative concentration-response curves); design: species or system Wistar rats; details: for Area (g of tension/2 min): average
# Protocol: Concentration-response curves were carried out on isolated uterus of estrogenized rats. Female Wistar rats weighing 250g to 300g were employed. The animals were pretreated with 0.1 mg/kg of estradiol, subcutaneously, 24 h before the experiment. The whole uterus was dissected and excised and a portion of 1 cm of one horn was incubated in a 10 ml organ bath, at 30°C, bubbled with a mixture of 95 % O2 plus 5 % CO2. The nutrient solution was De Jalon solution described in the International Pharmacopea II^nd Ed. and containing 4x10^-7 M sodium diclofenac. The organ was left to stabilize in the solution for one hour. No spontaneous contractions were detected under these experimental conditions. To carry out the concentration-response curves, volumes of solutions of either natural prostaglandins or B-407 were added in order to obtain concentrations in the organ bath between 10^-10 M and 3x10^-6 M. After 2 minutes, the organ was washed three times during a 15 minutes time period before adding the next test solution. In this way the concentration-response curves obtained were not cumulative ["The rat uterus preparation" in "Pharmacological Experiments on Isolated Preparations". E. and S. Livingstone Ltd. Edinburgh and London (1968), p. 92].
# Recording of the contractions of the isolated uterus were on a Berger polygraph with a FT03C transducer. The frequency and magnitude of the responses were globally evaluated by calculating the total area recorded at fixed time periods as will be further explained.
# (§1) The frequency and magnitude of the responses were globally evaluated by calculating the total area recorded at a fixed time period as will be further explained. The areas under the curve of the recording paper, over 15 minutes periods, were cut and weighed both in the concentration-response curves and in the potentiating experiments.
# (§2) The calibration was made by weighing a piece of paper which corresponded to a tension of 1 g at the working sensitivity along 2 minutes. Therefore, a relationship of area expressed in g/2 min was obtained and then the weights of the areas of the responses were transformed to unities of area. The results were expressed as the mean ± the standard error of the areas obtained. The statistical evaluation of the differences was carried out either by ANOVA or by Student's-t-test, as appropriate.
# [2] = test system: isolated rat uterus under diestrous condition; assay: B1: effect on isolated uterus of diestrous rat with basal spontaneous contractions (cumulative curves, Krebs solution); design: species or system Wistar rats; details: basal 5,85
# Protocol: (§3) (B1)- Concentration-response curves on isolated rat uterus under diestrous condition were carried out. Wistar rats weighing 250 g to 300 g were employed. The diestrous phase was detected by a daily vaginal smear. The uterus was dissected out and a portion of a horn was placed in a 10 ml organ bath in a similar way to that described in part A. The bath temperature was maintained at 37°C, bubbled with a mixture of 95 % O2 and 5 % CO2 in a Krebs nutrient solution. The organ was left to stabilize for one hour. The isolated uterus presented basal spontaneous contractions under these experimental conditions. Cumulative concentration-response curves were carried out with the addition of either 100 µl or 300 µl of solutions of either natural prostaglandins or B-407 in concentrations of 10^-10 M to 10^-6 M, each 15 minutes without any washing. Uterine contractions and quantitation were performed as described in (A). (B2)- Concentration-response curves in isolated uterus under diestrous (without any spontaneous contractions) were carried out. Sodium diclofenac was added to De Jalon nutrient solution to a final concentration of 4x10^-6 M. The organ was left to stabilize until the absence of spontaneous contractions. Non-cumulative concentration-response curves were obtained. Recordings of the contractions and their quantitation were performed as described in (A).
# as §1, §2
# [3] = test system: isolated uterus under diestrous (without any spontaneous contractions); assay: B2: effect on isolated uterus of diestrous rat without spontaneous contractions (De Jalon solution with sodium diclofenac, non-cumulative curves); design: species or system Wistar rats; details: for Area (g of tension/2 min): B2, basal 1,96
# Protocol: as §3, §1, §2
# [4] = test system: Swiss female mice; assay: Barbiturate sleeping time in mice; assay type: in vivo; details: 100 µg/kg,ip, 15 min before pentobarbital sodium 30 mg/kg i.p., n= 12
# Protocol: The effect of B-407 on the time of induction and time of duration of the barbiturate sleeping time was evaluated by determining the time of loss and recovery of the righting reflex. This was carried out in Swiss female mice weighing 20 g to 25 g.
# Two groups of 12 mice each were used. One group was treated with B-407 (100 µg/kg, i.p.). Fifteen minutes later, pentobarbital sodium (30 mg/kg, i.p.) was administered. The time of onset (the loss of the righting reflex) and of duration (the elapsed time from the loss of the righting reflex up to its recovery from the barbiturate-induced sleeping) were determined. Full recovery of the righting reflex was assumed when the animal, placed on its back, could recover its normal position at least 3 times during one minute. The control mice group followed the same protocol, but received saline solution instead B-407. The results were expressed as the average ± standard error of each group and the statistical significance of the differences were evaluated by means of the Student's-t-test.
# [5] = test system: rat uterus; assay: Disappearance of exogenous PGF2α in rat uterus slices (R.I.A.); design: species or system Wistar rats
# Protocol: An experiment was performed in which the disappearance of exogenous PGF2α was determined in the nutrient solution of slices of rat uterus both in the presence and absence of the synthetic PGE1 analog, B-407.
# Seven Wistar rats weighing approximately 220 g were estrogenized by the subcutaneous administration of 100 µg/kg of 17β estradiol. Twenty-four hours later they were killed by decapitation. The uterine horns were dissected out and weighed. The horns were cut and washed with bubbled De Jalon nutrient solution plus 4x10^-7 M sodium diclofenac during 15 to 20 minutes. Both bubbling and diclofenac content were maintained in the following steps: each horn was then placed in a small organ bath and preincubated during 15 to 20 min with either the nutrient solution alone or containing B-407 10^-8 M or 10^-7 M. The assay was started by adding exogenous PGF2α (10^-8 M in the medium) to each horn previously changed to a new tube. A final volume of 0.4 ml was obtained with the addition of De Jalon solution at 37°C. Aliquots of […] were sampled at 0 min, 5 min, 15 min and 30 min. The PGF2α concentration in each sample was determined by R.I.A. (Sigma, NEN) and it was expressed as pg/mg of wet tissue.
# [6] = test system: Swiss male mice; assay: Motor activity in mice (rota-rod); details: 100 µg/kg, i.p., 15 min prior to the test; vehicle 0/10
smiles,measurement,setting,value
"CCCCC(C)(O)C/C=C/[C@H]1[C@H](O)CC(=O)[C@@H]1CCCC/C=C/C(=O)OC (mixture of isomers) [B-407, trans-Δ^2-15-deoxy-16-hydroxy-16-methyl PGE1 methyl ester]",Area (g of tension/2 min),"[1]; 1x10^-6 M, n=6","1,13 g of tension/ 2 min"
same,Area (g of tension/2 min),"[1]; 1x10^-7 M, n=6","0,31 g of tension/ 2 min"
same,Area (g of tension/2 min),"[1]; 1x10^-8 M, n=6","0,20 g of tension/ 2 min"
same,Area (g of tension/2 min),"[1]; 1x10^-9 M, n=6","0,12 g of tension/ 2 min"
same,Area (g of tension/2 min),"[1]; 1x10^-10 M, n=6","0,14 g of tension/ 2 min"
same,Area (g of tension/2 min),"[1]; 3x10^-6 M, n=5","0,67 g of tension/ 2 min"
same,times less potent than PGE1 on rat uterine contractility in vitro,[1]; PGE1 results are not shown,about 4 times
same,Area (g of tension/2 min),[2]; 1x10^-6 M,"6,46 g of tension/2 min"
same,Area (g of tension/2 min),[2]; 1x10^-7 M,"7,38 g of tension/2 min"
same,Area (g of tension/2 min),[2]; 1x10^-8 M,"6,88 g of tension/2 min"
same,Area (g of tension/2 min),[2]; 1x10^-9 M,"6,14 g of tension/2 min"
same,maximum response of the uterotonic effect relative to the basal one,"[3]; B2, with diclofenac",duplicates the basal one
same,Area (g of tension/2 min),[3]; 1x10^-6 M,"4,24 g of tension/2 min"
same,Area (g of tension/2 min),[3]; 1x10^-7 M,"3,73 g of tension/2 min"
same,Area (g of tension/2 min),[3]; 1x10^-8 M,"2,10 g of tension/2 min"
same,Area (g of tension/2 min),[3]; 1x10^-9 M,"1,91 g of tension/2 min"
same,Induction time,"[4]; control 4,52 ± 0,22, p < 0,02","3,75 ± 0,19 min"
same,Sleeping time,"[4]; control 27,8 ± 3,10, n.s.","29,7 ± 2,91 min"
same,PGF2α (pg/mg tissue),"[5]; B-407 10^-7 M, time 0 min, control 655,4","667,2 pg/mg tissue"
same,PGF2α (pg/mg tissue),"[5]; B-407 10^-7 M, time 5 min, control 582.8","623,7 pg/mg tissue"
same,PGF2α (pg/mg tissue),"[5]; B-407 10^-7 M, time 15 min, control 478.4","561,7 pg/mg tissue"
same,PGF2α (pg/mg tissue),"[5]; B-407 10^-7 M, time 30 min, control 227.5","528,4 pg/mg tissue"
same,PGF2α (pg/mg tissue),"[5]; B-407 10^-8 M, time 0 min, control 655,4","705,7 pg/mg tissue"
same,PGF2α (pg/mg tissue),"[5]; B-407 10^-8 M, time 5 min, control 582.8","705,9 pg/mg tissue"
same,PGF2α (pg/mg tissue),"[5]; B-407 10^-8 M, time 15 min, control 478.4","563,6 pg/mg tissue"
same,PGF2α (pg/mg tissue),"[5]; B-407 10^-8 M, time 30 min, control 227.5","403,7 pg/mg tissue"
same,Fraction (animals fallen before 300 sec/total number of animals),[6],1/10
